Measured values reported in patent publication US9975868B2, “7,8-dihydoxyflavone and 7,8-substituted flavone derivatives, compositions, and methods related thereto” (EMORY UNIVERSITY, priority 2012, dated 2018).
Entries after “also recorded” stand apart in the source; their conditions may differ. Each block holds one compound with its values, some of them ahead of it.

Legend:
[1] = brain 7,8-DHF concentration after oral administration; type: in vivo, mice
[2] = in vivo PK study, plasma 7,8-DHF after oral administration; parameters: species or system mice
Description: Two months old mice were orally administrated 78 mg/kg of the R7, and mice were sacrificed at different time points (n=3), the plasma was then harvested and analyzed by HPLC/MS.
Derivatives with various moieties on the catechol group in 7,8-DHF were synthesized. These derivatives were monitored for intestine microsomal stability, liver microsomal stability and plasma stability.

[3] = tested on: mouse model of Alzheimer's disease; settings: cited from earlier work
[4] = chemical stability in pH 1.2 and 7.4 buffer; type: physicochemical
Description: Metabolism studies indicate that the catechol group is conjugated by glucuronidation, sulfation and methylation in liver, which leads to the poor oral bioavailability upon oral administration. […] Most of 7,8-DHF is conjugated and metabolized within 30 min. Derivatives with various moieties on the catechol group in 7,8-DHF were synthesized. These derivatives were monitored for intestine microsomal stability, liver microsomal stability and plasma stability. In addition, compounds with favorable chemical stability and Caco-2 permeability were examined.
R7 and R13 were chosen to analyze their in vivo PK profiles. The concentration of 7,8-DHF's in brain was examined at different time points after oral administrated 72.5 mg/kg, which is the molecular equivalent of 50 mg/kg of 7,8-DHF. In plasma, 7,8-DHF peaked at around 100 min for R13, whereas administration of the parent compound 7,8-DHF, occurred at 10 min. The oral bioavailability of R13 was around 10%.

TrkB = biological target: T1, TrkB (Mus musculus, UniProt P15209); test: TrkB signaling in mouse brain by immunoblotting after oral administration; type: in vivo; settings: R7 78 mg/kg oral
T1 construct: from tissue; host or cells: mouse brain (lysates after oral dosing)
Description: R7 (78 mg/kg equal to about 50 mg/kg of 7,8-DHF) was administered orally. The mice were sacrificed at different intervals. The brain lysates were analyzed by immunobotting with various antibodies including p-TrkB 816, Total TrkB, p-Akt and total Akt.
The TrkB signaling in mouse brains was monitored from the in vivo PK study. […] The pharmacodynamic (PD) study fits well with the in vivo PK data, underscoring that the released 7,8-DHF from R7 triggers the long-lasting TrkB signalings in mouse brain.

T1 sequence (P15209 32-821): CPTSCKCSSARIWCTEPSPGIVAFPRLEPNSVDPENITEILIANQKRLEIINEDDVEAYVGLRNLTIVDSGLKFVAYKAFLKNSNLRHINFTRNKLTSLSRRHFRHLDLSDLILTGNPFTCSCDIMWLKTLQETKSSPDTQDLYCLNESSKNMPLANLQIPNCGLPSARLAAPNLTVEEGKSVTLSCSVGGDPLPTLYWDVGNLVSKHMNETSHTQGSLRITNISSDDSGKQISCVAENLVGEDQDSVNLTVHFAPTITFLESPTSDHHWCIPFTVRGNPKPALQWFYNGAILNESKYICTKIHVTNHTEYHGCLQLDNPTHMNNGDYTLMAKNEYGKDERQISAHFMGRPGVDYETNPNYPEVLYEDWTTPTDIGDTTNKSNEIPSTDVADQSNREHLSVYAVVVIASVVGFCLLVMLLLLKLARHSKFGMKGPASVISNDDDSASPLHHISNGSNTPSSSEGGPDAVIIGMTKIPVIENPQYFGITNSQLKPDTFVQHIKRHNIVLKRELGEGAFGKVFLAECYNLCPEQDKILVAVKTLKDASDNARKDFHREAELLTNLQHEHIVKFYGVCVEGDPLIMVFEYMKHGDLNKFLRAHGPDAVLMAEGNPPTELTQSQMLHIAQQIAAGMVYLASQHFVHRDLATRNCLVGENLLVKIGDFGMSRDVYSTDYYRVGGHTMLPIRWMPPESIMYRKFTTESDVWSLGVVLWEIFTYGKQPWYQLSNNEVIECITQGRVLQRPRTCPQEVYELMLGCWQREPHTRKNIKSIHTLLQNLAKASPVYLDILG

Compound: CNC(=O)Oc1ccc2c(=O)cc(-c3ccccc3)oc2c1OC(=O)NC [R13, 4-oxo-2-phenyl-4H-chromene-7,8-diyl bis(methylcarbamate)]
7,8-DHF oral bioavailability and brain concentrations versus parent compound ([1]; FIG. 4, oral administration): improves | 7,8-DHF brain availability ([1]; oral 72.5 mg/kg): significantly elongated

time within which most is conjugated and metabolized ([2]; C57BL6, mouse, in vivo): ≤ 30 min | bioavailability ([2]; C57BL6, mouse, in vivo, po): ~5% | 7,8-DHF detectability in brain ([1]; oral administration of parent compound): not detectable after 4 h
Compound: O=c1cc(-c2ccccc2)oc2c(O)c(O)ccc12 [7,8-DHF, 7,8-dihydroxyflavone, reference compound]
memory deficits and BACE1 elevation [3]: reverses

Compound: CN(C)C(=O)Oc1ccc2c(=O)cc(-c3ccccc3)oc2c1OC(=O)N(C)C [R7, 4-oxo-2-phenyl-4H-chromene-7,8-diyl bis(dimethylcarbamate)]
7,8-DHF plasma concentrations compared with parent compound ([2]; R7 78 mg/kg vs 7,8-DHF 50 mg/kg P.O.): higher than parent compound | 7,8-DHF detectable in plasma ([2]; at 8 h after oral R7): detectable | chemical stability in buffer ([4]; pH 1.2): stable | chemical stability in buffer ([4]; pH 7.4): stable | TrkB activation (p-TrkB) in mouse brain (TrkB): potently activated; also recorded: triggers TrkB activation | downstream p-Akt signaling activation in mouse brain (TrkB): potently activated; also recorded: downstream Akt signaling activation
